# Measured values taken from US20240103005A1, “N-ACRYLOYLINDOLES AND METHODS OF USE” (The University of Hong Kong, priority 2022, published 2024).
# Test system: HepG2 cells
# Test: Imaging oxidized thiols in HepG2 cells under oxidative stress by NAI/NAIA couple
# Format: cell-based
# Details: 50 μM, 10 min
# Experimental: Imaging Oxidized Thiols in HepG2 Cells Under Oxidative Stress by NAI/NAIA Couple
# HepG2 cells were plated on a 8-well Nunc Lab-Tek chambered slide system and allowed to grow in complete medium at 37° C. with 5% CO2 to ca. 70% confluency. The cells were then pretreated with solvent vehicles, H2O2 (0.5 or 1 mM) or H2O2 (1 mM)+NAC (5 mM) in complete medium for 15 min at 37° C. The cells were washed with PBS and incubated with NAI compound 3 (50 μM) in complete medium for 10 min at 37° C. After that, the cells were washed with PBS and fixed by 4% paraformaldehyde in PBS at room temperature for 15 min. […] The cells were washed thrice with PBS and then imaged in PBS by confocal fluorescence microscopy.
# Confocal fluorescence microscopy imaging was performed with a Zeiss laser scanning microscope 880 with a 20× water-immersion objective lens using ZEN 2.3 (Black Version) software (Carl Zeiss) with 3× magnification zoom-in. […] A region of interest (ROI) was created around individual cell, and cellular fluorescence intensity was measured. The reported average cellular fluorescence intensity was determined by averaging the measured intensity from 30 different cells from 3 different biological replicates/group. […]
# Therefore, we sought to utilize the NAI/NAIA couple to capture oxidized thiols and image them by confocal fluorescence microscopy (FIGS. 12A-12B). […]
smiles,measurement,value
C=CC(=O)N1CCc2cc(OCC(=O)OC(C)(C)C)ccc21 [compound 3b],trapping of free thiols in live cells,excellent trapping of free thiols
